Test results: the NIST ThermoML archive (doi:10.1021/je700751a)

Assay: mn = molality of the nth substance listed, in mol/kg
Details: 101 kPa, Liquid; for viscosity: Capillary tube (Ostwald / Ubbelohde) method

O=C([O-])[C@H](O)[C@@H](O)C(=O)[O-].[K+].[K+] [dipotassium L-tartrate] + O
Details	mass density, 298.15 K [kg/m3]	mass density, 308.15 K [kg/m3]	mass density, 318.15 K [kg/m3]	speed of sound, 298.15 K [m/s]	viscosity, 298.15 K [mPa·s]	viscosity, 308.15 K [mPa·s]	viscosity, 318.15 K [mPa·s]
m1 = 0.0222	–	–	–	–	0.879	0.718	0.595
m1 = 0.0312	–	–	–	–	0.892	0.723	0.601
m1 = 0.0398	1002.88	999.78	995.909	1502.5	–	–	–
m1 = 0.0498	1004.29	1001.18	997.282	1503.7	–	–	–
m1 = 0.0516	–	–	–	–	0.902	0.731	0.609
m1 = 0.0615	1005.99	1002.85	998.942	1505.4	–	–	–
m1 = 0.0697	1007.18	1004.01	1000.09	1506.5	–	–	–
m1 = 0.073	–	–	–	–	0.911	0.737	0.612
m1 = 0.0797	1008.56	1005.39	1001.44	1508.8	–	–	–
m1 = 0.0897	1010.01	1006.8	1002.86	1509.5	–	–	–
m1 = 0.0909	–	–	–	–	0.917	0.75	0.623
m1 = 0.0996	1011.42	1008.21	1004.24	1510.3	–	–	–
m1 = 0.1822	–	–	–	–	0.948	0.773	0.639
m1 = 0.2842	–	–	–	–	0.985	0.799	0.665
m1 = 0.3	1039.02	1035.42	1031.19	1535.7	–	–	–
m1 = 0.3843	–	–	–	–	1.012	0.821	0.693
m1 = 0.4639	–	–	–	–	1.04	0.847	0.705
m1 = 0.4985	1064.81	1060.93	1056.45	1559.5	–	–	–
m1 = 0.6883	–	–	–	–	1.125	0.916	0.764
m1 = 0.6922	1088.8	1084.65	1079.98	1582.2	–	–	–
m1 = 0.8934	1112.36	1108	1103.17	1605.2	–	–	–
m1 = 1.098	–	–	–	–	1.294	1.054	0.879
m1 = 1.284	1155.12	1150.41	1145.3	1648.3	–	–	–
m1 = 1.468	–	–	–	–	1.474	1.206	1.006
m1 = 1.579	1185.12	1180.16	1174.96	1680.5	–	–	–
m1 = 1.878	–	–	–	–	1.71	1.389	1.157
m1 = 1.965	1221.2	1216.05	1210.59	1718.3	–	–	–
m1 = 2.443	1262.59	1257.21	1251.59	1764	–	–	–
m1 = 2.602	–	–	–	–	2.243	1.801	1.483
m1 = 2.923	1299.6	1294.09	1288.34	1805.2	–	–	–
m1 = 3.391	1331.8	1326.15	1320.32	1841.5	–	–	–
m1 = 3.405	–	–	–	–	3.301	2.613	2.12
m1 = 3.858	1362.45	1356.74	1350.83	1876.2	–	–	–
m1 = 4.077	–	–	–	–	4.296	3.367	2.7
m1 = 4.324	1389.87	1384.06	1378.1	1907	–	–	–
m1 = 4.785	1414.66	1408.83	1402.83	1935.4	–	–	–
m1 = 5.188	–	–	–	–	6.378	4.841	3.829
m1 = 5.238	1437.73	1431.81	1425.78	1960.6	–	–	–
m1 = 5.378	–	–	–	–	7.066	5.339	4.176
m1 = 5.692	1459.07	1453.12	1447.06	1984.8	–	–	–
